Assay: Solubility behaviour in water and cosmetic solvents/oils
Format: physicochemical
Conditions: for Solubility behaviour [%], Cyclomethicone: solvent: Cyclomethicone; for Solubility behaviour [%], Finsolve TN: solvent: Finsolve TN; for Solubility behaviour [%], Jojoba Oil: solvent: Jojoba Oil; for Solubility behaviour [%], Mineral Oil: solvent: Mineral Oil; for Solubility behaviour [%], Mygliol: solvent: Mygliol; for Solubility behaviour [%], Polydecene: solvent: Polydecene; for Solubility behaviour [%], Propyleneglycol: solvent: Propyleneglycol; for Solubility behaviour [%], (Water): solvent: water

CCCCC(CC)CN(CC(CC)CCCC)C1=CC(=C(C#N)C#N)CCC1 (stereo not shown)
Solubility behaviour [%], Cyclomethicone: 0.540% | Solubility behaviour [%], Finsolve TN: >50% | Solubility behaviour [%], Jojoba Oil: >50% | Solubility behaviour [%], Mineral Oil: 1.514% | Solubility behaviour [%], Mygliol: >50% | Solubility behaviour [%], Polydecene: 0.734% | Solubility behaviour [%], Propyleneglycol: 0.766% | Solubility behaviour [%], (Water): 0.000%

CCCCC(CC)CN(CC(CC)CCCC)C1=CC(=C(C#N)C#N)CC(C)(C)C1 (stereo not shown)
Solubility behaviour [%], Cyclomethicone: 0.509% | Solubility behaviour [%], Finsolve TN: >5% | Solubility behaviour [%], Jojoba Oil: 2.470% | Solubility behaviour [%], Mineral Oil: 0.569% | Solubility behaviour [%], Mygliol: >5% | Solubility behaviour [%], Polydecene: 0.367% | Solubility behaviour [%], Propyleneglycol: 0.361% | Solubility behaviour [%], (Water): 0.000%
